Test results taken from ChEMBL document CHEMBL6134779, “Design of Proteolytic-Resistant Antifungal Peptides by Utilizing Minimum d-Amino Acid Ratios” (J Med Chem, 2024).
≈ marks a conversion by molar mass, not a printed value. Calls of active or inactive are those of the source. The rule behind the calls is not given here.

Key:
Candida albicans [1] = experiment: Antifungal activity against Candida albicans CGMCC 2.2086 assessed as inhibition of fungal growth incubated for 48 hrs; assay type: functional
Candida tropicalis = experiment: Antifungal activity against Candida tropicalis CGMCC 2.1975 assessed as inhibition of fungal growth incubated for 48 hrs; assay type: functional
Candida albicans [2] = experiment: Antifungal activity against Candida albicans 14936 assessed as inhibition of fungal growth incubated for 48 hrs; assay type: functional
HEK293 = experiment: Cytotoxicity against HEK293 cells assessed as reduction in cell viability at 128 uM incubated for 4 hrs by MTT assay; assay type: toxicity, cell-based; settings: human, hek293, 4 h
[3] = Stability of the compound in NH4Cl assessed as change in secondary structure by CD spectra analysis; assay type: physicochemical
[4] = Stability of the compound in CaCl2 assessed as change in secondary structure by CD spectra analysis; assay type: physicochemical
Candida albicans [5] = experiment: Antifungal activity against Candida albicans CGMCC 2.2086 assessed as inhibition of fungal growth incubated for 2 hrs in presence of trypsin; assay type: functional, organism-based
Candida albicans [6] = experiment: Antifungal activity against Candida albicans CGMCC 2.2086 assessed as inhibition of fungal growth incubated for 2 hrs in presence of chymotrypsin; assay type: functional, organism-based
[7] = Proteolytic stability of the compound assessed as protease K (unknown origin)-mediated drug degradation measured after 8 hrs by 16.5% tricine-SDS-PAGE analysis; assay type: ADME; settings: human
[8] = Proteolytic stability of the compound assessed as trypsin (unknown origin)-mediated drug degradation measured after 8 hrs by RP-HPLC analysis; assay type: ADME; settings: human
Candida albicans [9] = experiment: Antibiofilm activity against Candida albicans CGMCC 2.2086 assessed as inhibition of biofilm formation at antifungal MIC measured after 48 hrs by crystal violet staining based assay; assay type: functional
Candida albicans [10] = experiment: Antibiofilm activity against Candida albicans CGMCC 2.2086 assessed as eradication of mature biofilm at 4X MIC measured after 3 hrs by SYTO 9/propidium iodide staining based fluorescence microscopy; assay type: functional, organism-based
Cell membrane = experiment: Disruption of Candida albicans CGMCC 2.2086 cell membrane at 1X MIC measured after 1 hr by SYTO9/propidium iodide staining based fluorescence microscopic analysis; assay type: subcellular
Candida albicans [11] = experiment: Induction of morphological changes in Candida albicans CGMCC 2.2086 assessed as appearance of cell wrinkles at 1X MIC measured after 60 mins by SEM analysis; assay type: functional, organism-based
Candida albicans [12] = experiment: Induction of morphological changes in Candida albicans CGMCC 2.2086 assessed as separation of cell wall from plasma membrane at 1X MIC measured after 60 mins by TEM analysis; assay type: functional, organism-based
Candida albicans [13] = experiment: Fungicidal activity against Candida albicans CGMCC 2.2086 at 1X MIC measured within 90 mins by time-kill assay; assay type: functional, organism-based
Candida albicans [14] = experiment: Antifungal activity against Candida albicans CGMCC 2.2086 infected in C57BL/6 mouse keratitis model assessed as reduction in fungal cell count at 5 mg/ml administered as 10 uL eye drop every 5 mins for first 1 hr and every 30 mins for next 7 hrs relative to control; assay type: functional; parameters: scale not given: the % may be the effect or the level left; settings: route ou, time 8 hrs
Candida albicans [15] = experiment: Antifungal activity against Candida albicans CGMCC 2.2086 infected in C57BL/6 mouse keratitis model assessed as increase in ocular clarity at 5 mg/ml administered as 10 uL eye drop every 5 mins for first 1 hr and every 30 mins for next 7 hrs; assay type: functional, organism-based; settings: route ou, time 8.0 hrs

SMILES: CC[C@H](C)[C@H](N)C(=O)N[C@H](C(=O)N[C@H](CCCNC(=N)N)C(=O)N[C@@H](CCCNC(=N)N)C(=O)N[C@@H](Cc1c[nH]cn1)C(=O)N[C@H](C(=O)N[C@H](C(=O)N[C@H](C(=O)N[C@H](C(=O)N[C@H](CCCNC(=N)N)C(=O)N[C@@H](CCCNC(=N)N)C(=O)N[C@@H](Cc1c[nH]cn1)C(=O)N[C@H](C(=O)N[C@H](C(=O)N[C@H](C(=O)N[C@H](C(=O)N[C@H](CCCNC(=N)N)C(=O)N[C@@H](CCCNC(=N)N)C(=O)N[C@@H](Cc1c[nH]cn1)C(=O)N[C@H](C(=O)N[C@H](C(N)=O)[C@@H](C)CC)[C@@H](C)CC)[C@@H](C)CC)[C@@H](C)CC)[C@@H](C)CC)[C@@H](C)CC)[C@@H](C)CC)[C@@H](C)CC)[C@@H](C)CC)[C@@H](C)CC)[C@@H](C)CC
- MIC95 (Candida albicans [1]): 4 µM (≈ 10.9 µg/mL)
- MIC95 (Candida tropicalis): 2 µM (≈ 5.45 µg/mL)
- MIC95 (Candida albicans [2]): 4 µM (≈ 10.9 µg/mL)
- Activity (HEK293): Toxic
- Stability [3]: Stable
- Stability [4]: Stable
- Activity (Candida albicans [5]): Active
- Activity (Candida albicans [6]): Active
- Stability [7]: Stable
- Stability [8]: Stable
- inhibition (INH) (Candida albicans [9]): 90%
- Activity (Candida albicans [10]): Active
- Activity (Cell membrane): Active
- Activity (Candida albicans [11]): Active
- Activity (Candida albicans [12]): Active
- Activity (Candida albicans [13]): Active; Eliminated All Fungal Organisms
- Activity (Candida albicans [14]): >65%
- Activity (Candida albicans [15]): Active
